Assay results taken from PMC2248166, “Quantitative peptide binding motifs for 19 human and mouse MHC class I molecules derived using positional scanning combinatorial peptide libraries” (Immunome Research, 2008).

These sequences were tested against H-2 K^k (Mus musculus, UniProt P04223) (assay: not given). Conditions: not given.
Type: binding

Chain of H-2 K^k (P01887 21-119): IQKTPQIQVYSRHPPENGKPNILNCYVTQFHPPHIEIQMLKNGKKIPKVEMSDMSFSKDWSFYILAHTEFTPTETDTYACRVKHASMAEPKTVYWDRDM
Chain of H-2 K^k (P04223 22-369): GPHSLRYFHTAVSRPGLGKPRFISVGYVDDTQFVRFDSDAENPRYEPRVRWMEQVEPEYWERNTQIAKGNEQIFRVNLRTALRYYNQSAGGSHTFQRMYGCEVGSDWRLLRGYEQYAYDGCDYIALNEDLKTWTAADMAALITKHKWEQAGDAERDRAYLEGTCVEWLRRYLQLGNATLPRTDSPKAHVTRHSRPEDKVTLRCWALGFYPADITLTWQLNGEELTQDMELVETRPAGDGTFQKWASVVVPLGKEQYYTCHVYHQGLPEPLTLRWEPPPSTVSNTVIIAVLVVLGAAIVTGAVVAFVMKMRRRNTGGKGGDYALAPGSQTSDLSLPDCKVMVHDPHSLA

First: XLXXXXXXX [3064.0030]
Second: XMXXXXXXX [3064.0031]
The “Normalized average relative binding affinity (ARB), H-2 Kk” value of the first is higher: 0.062 for the first, 0.012 for the second.

First: XNXXXXXXX [3064.0032]
Second: XPXXXXXXX [3064.0033]
The “Normalized average relative binding affinity (ARB), H-2 Kk” value of the first is lower: 0.0053 for the first, 0.017 for the second.

The sequences below were run against HLA A*3001 (Homo sapiens, UniProt P04439, D140H/D185E/E176W/F33S/G80R/H175R/K168Q/R138E/R41S) (assay: biochemical). Conditions: not given.
Type: binding

First: XLXXXXXXX [3064.0030]
Second: XMXXXXXXX [3064.0031]
The “Normalized average relative binding affinity (ARB), HLA A*3001” value of the first is lower: 0.16 for the first, 0.70 for the second.

Compared with XNXXXXXXX [3064.0032], XPXXXXXXX [3064.0033] is lower in “Normalized average relative binding affinity (ARB), HLA A*3001” value: 0.10 for the first, 0.024 for the second.

Each sequence was assayed against H-2 D^d (Mus musculus, UniProt P01900) (assay: not given). Conditions: not given.
Chain of H-2 D^d (P01900 whole entry, looked up): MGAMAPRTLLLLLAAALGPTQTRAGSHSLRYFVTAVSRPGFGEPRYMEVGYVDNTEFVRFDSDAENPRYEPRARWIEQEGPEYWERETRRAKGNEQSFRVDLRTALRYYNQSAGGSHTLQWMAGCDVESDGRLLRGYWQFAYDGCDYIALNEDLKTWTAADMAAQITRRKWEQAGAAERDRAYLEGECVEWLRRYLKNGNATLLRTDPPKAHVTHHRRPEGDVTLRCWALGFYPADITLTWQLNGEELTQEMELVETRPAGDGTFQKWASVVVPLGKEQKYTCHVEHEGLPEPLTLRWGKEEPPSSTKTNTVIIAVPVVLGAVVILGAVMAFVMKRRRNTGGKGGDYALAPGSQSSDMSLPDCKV
Type: binding

First: XLXXXXXXX [3064.0030]
Second: XMXXXXXXX [3064.0031]
The “Normalized average relative binding affinity (ARB), H-2 Dd” value of the first is higher: 0.035 for the first, 0.018 for the second.

First: XNXXXXXXX [3064.0032]
Second: XPXXXXXXX [3064.0033]
The “Normalized average relative binding affinity (ARB), H-2 Dd” value of the first is lower: 0.018 for the first, 0.064 for the second.

The sequences below were run against HLA A*0201 (Homo sapiens, UniProt P04439, D140Y/D185E/D98H/E176V/E277Q/G131W/G231S/I119V/I121R/I166T/I218V/L300P/L318F/N151K/N90K/P208A/P217A/Q86G/Q94H/R138H/R169H/T345S) (assay: not given). Conditions: positional scanning combinatorial 9-mer library; normalized to 1.0 for the best residue at each position.

First: XLXXXXXXX [3064.0030]
Second: XMXXXXXXX [3064.0031]
The “Normalized average relative binding affinity (ARB), HLA A*0201” value of the first is higher: 1.0 for the first, 0.19 for the second.

First: XNXXXXXXX [3064.0032]
Second: XPXXXXXXX [3064.0033]
The “Normalized average relative binding affinity (ARB), HLA A*0201” value of the first is higher: 0.0062 for the first, 0.0034 for the second.

Each sequence was assayed against HLA B*0702 (Homo sapiens, UniProt P01889) (assay: not given). Conditions: positional scanning combinatorial 9-mer library; normalized to 1.0 for the best residue at each position.
Type: binding

Going from XLXXXXXXX [3064.0030] to XMXXXXXXX [3064.0031], the “Normalized average relative binding affinity (ARB), HLA B*0702” value falls from 0.016 to 0.0028.

First: XNXXXXXXX [3064.0032]
Second: XPXXXXXXX [3064.0033]
The “Normalized average relative binding affinity (ARB), HLA B*0702” value of the first is lower: 0.0028 for the first, 1.0 for the second.

These sequences were tested against HLA A*3201 (Homo sapiens, UniProt P04439, A270S/D101S/D185E/E176V/E277Q/F133L/G103R/G107R/G231S/H175R/I121M/I218V/I322F/K168Q/L105A/L300P/L318F/M331R/P208A/P217A/Q94H/R106L/R138Q/S129P/T104I/T323A/T345S/V100E/V321M/V358M) (assay: biochemical). Conditions: not given.
Type: binding

Going from XLXXXXXXX [3064.0030] to XMXXXXXXX [3064.0031], the “Normalized average relative binding affinity (ARB), HLA A*3201” value rises from 0.29 to 0.63.

Compared with XNXXXXXXX [3064.0032], XPXXXXXXX [3064.0033] is lower in “Normalized average relative binding affinity (ARB), HLA A*3201” value: 0.025 for the first, 0.022 for the second.

The sequences below were run against HLA B*3501 (Homo sapiens, UniProt P01889, A329T/A93T/A95T/C349S/D201E/D98Y/E176V/E187L/E204Q/E69T/I218V/K202T/L119I/Q94N/R155S/R180L/S121R/S35A/S48A/T118I/V127L/V306I/V36M/Y140S/Y91F) (assay: not given). Conditions: not given.
Type: binding

XLXXXXXXX [3064.0030] and XMXXXXXXX [3064.0031] are the same in “Normalized average relative binding affinity (ARB), HLA B*3501” value: 0.035 for the first, 0.035 for the second.

First: XNXXXXXXX [3064.0032]
Second: XPXXXXXXX [3064.0033]
The “Normalized average relative binding affinity (ARB), HLA B*3501” value of the first is lower: 0.0078 for the first, 1.0 for the second.

Each sequence was assayed against HLA B*5401 (Homo sapiens, UniProt P01889, A329T/C349S/D138N/D201E/E176V/E187T/E204Q/E69G/I76V/K202T/L119W/R155S/R180L/S121T/S35A/S48A/V127L/V306I/V36M/Y140L) (assay: not given). Conditions: not given.
Type: binding

Compared with XLXXXXXXX [3064.0030], XMXXXXXXX [3064.0031] is higher in “Normalized average relative binding affinity (ARB), HLA B*5401” value: 0.0037 for the first, 0.0072 for the second.

Going from XNXXXXXXX [3064.0032] to XPXXXXXXX [3064.0033], the “Normalized average relative binding affinity (ARB), HLA B*5401” value rises from 0.0018 to 0.19.

Each sequence was assayed against HLA B*5301 (Homo sapiens, UniProt P01889, A329T/A93T/A95T/C349S/D201E/D98Y/E176V/E187L/E204Q/E69T/G107R/I218V/K202T/L105A/L119I/N104I/Q94N/R106L/R155S/R180L/S101N/S121R/S35A/S48A/T118I/V127L/V306I/V36M/Y140S/Y91F) (assay: not given). Conditions: not given.
Type: binding

First: XLXXXXXXX [3064.0030]
Second: XMXXXXXXX [3064.0031]
The “Normalized average relative binding affinity (ARB), HLA B*5301” value of the first is lower: 0.035 for the first, 0.040 for the second.

Compared with XNXXXXXXX [3064.0032], XPXXXXXXX [3064.0033] is higher in “Normalized average relative binding affinity (ARB), HLA B*5301” value: 0.0083 for the first, 1.0 for the second.

Each sequence was assayed against HLA B*5801 (Homo sapiens, UniProt P01889, A329T/C349S/D201E/D98Y/E176V/E187L/E204Q/E69T/G107R/I218V/I90N/K202T/L105A/L119I/N104I/N87E/Q89R/Q94S/R106L/R155S/R180L/R86G/S101N/S121R/S35A/S48A/T118I/V127L/V306I/V36M/Y140S/Y91M) (assay: not given). Conditions: not given.
Type: binding

First: XLXXXXXXX [3064.0030]
Second: XMXXXXXXX [3064.0031]
The “Normalized average relative binding affinity (ARB), HLA B*5801” value of the first is higher: 0.043 for the first, 0.0033 for the second.

Compared with XNXXXXXXX [3064.0032], XPXXXXXXX [3064.0033] is higher in “Normalized average relative binding affinity (ARB), HLA B*5801” value: 0.012 for the first, 0.014 for the second.

The sequences below were run against HLA B*0801 (Homo sapiens, UniProt P01889, A93T/A95T/D138N/E176V/E187T/K202T/Q94N/R180D/S35A/V36M/Y33D/Y91F) (assay: biochemical). Conditions: not given.
Type: binding

First: XLXXXXXXX [3064.0030]
Second: XMXXXXXXX [3064.0031]
The “Normalized average relative binding affinity (ARB), HLA B*0801” value of the first is higher: 0.72 for the first, 0.70 for the second.

Going from XNXXXXXXX [3064.0032] to XPXXXXXXX [3064.0033], the “Normalized average relative binding affinity (ARB), HLA B*0801” value rises from 0.16 to 1.0.

These sequences were tested against HLA B*2705 (Homo sapiens, UniProt P01889, D138H/D201E/E176V/E204Q/G107R/H137Y/K202T/N104T/N87E/Q56L/Q94K/R106L/R155S/R180L/S101D/S121N/S48T/Y140D/Y33H/Y91C) (assay: not given). Conditions: positional scanning combinatorial 9-mer library; normalized to 1.0 for the best residue at each position.
Type: binding

First: XLXXXXXXX [3064.0030]
Second: XMXXXXXXX [3064.0031]
The “Normalized average relative binding affinity (ARB), HLA B*2705” value of the first is lower: 0.0053 for the first, 0.010 for the second.

XNXXXXXXX [3064.0032] and XPXXXXXXX [3064.0033] are the same in “Normalized average relative binding affinity (ARB), HLA B*2705” value: 0.0016 for the first, 0.0016 for the second.

Each sequence was assayed against HLA B*1503 (Homo sapiens, UniProt P01889, A329T/A93T/A95T/C349S/D201E/D98Y/E187L/E204Q/K202T/N87E/Q94N/R155S/R180L/S121R/S35A/V306I/V36M/Y140S/Y91S) (assay: biochemical). Conditions: not given.
Type: binding

Compared with XLXXXXXXX [3064.0030], XMXXXXXXX [3064.0031] is higher in “Normalized average relative binding affinity (ARB), HLA B*1503” value: 0.18 for the first, 0.57 for the second.

First: XNXXXXXXX [3064.0032]
Second: XPXXXXXXX [3064.0033]
The “Normalized average relative binding affinity (ARB), HLA B*1503” value of the first is higher: 0.032 for the first, 0.031 for the second.

What follows are sequences tested against HLA A*6802 (Homo sapiens, UniProt P04439, A269V/D140Y/D185E/E176V/E277Q/E87N/F33Y/G231S/I121R/I166T/I218V/L180W/L300P/L318F/N151K/P208A/P217A/Q86R/R138H/R169H/S129P/T345S/V36M) (assay: not given). Conditions: not given.
Type: binding

Compared with XLXXXXXXX [3064.0030], XMXXXXXXX [3064.0031] is lower in “Normalized average relative binding affinity (ARB), HLA A*6802” value: 0.097 for the first, 0.055 for the second.

Going from XNXXXXXXX [3064.0032] to XPXXXXXXX [3064.0033], the “Normalized average relative binding affinity (ARB), HLA A*6802” value rises from 0.034 to 0.041.

The sequences below were run against H-2 D^b (Mus musculus, UniProt P01899) (assay: not given). Conditions: not given.
Chain of H-2 D^b (P01887 21-119): as the sequence (P01887 21-119) above
Chain of H-2 D^b (P01899 25-362): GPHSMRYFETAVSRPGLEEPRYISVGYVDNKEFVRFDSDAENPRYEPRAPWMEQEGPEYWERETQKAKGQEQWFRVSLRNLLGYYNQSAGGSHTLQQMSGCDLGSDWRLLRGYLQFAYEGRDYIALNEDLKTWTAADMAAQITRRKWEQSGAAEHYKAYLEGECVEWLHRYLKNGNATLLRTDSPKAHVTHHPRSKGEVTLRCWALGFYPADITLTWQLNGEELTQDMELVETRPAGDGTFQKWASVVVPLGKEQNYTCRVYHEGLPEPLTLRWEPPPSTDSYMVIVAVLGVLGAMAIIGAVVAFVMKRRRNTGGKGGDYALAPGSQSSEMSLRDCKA
Type: binding

First: XLXXXXXXX [3064.0030]
Second: XMXXXXXXX [3064.0031]
The “Normalized average relative binding affinity (ARB), H-2 Db” value of the first is lower: 0.18 for the first, 0.73 for the second.

First: XNXXXXXXX [3064.0032]
Second: XPXXXXXXX [3064.0033]
The “Normalized average relative binding affinity (ARB), H-2 Db” value of the first is higher: 0.11 for the first, 0.036 for the second.

The sequences below were run against HLA B*5802 (Homo sapiens, UniProt P01889, A329T/C349S/D201E/D98Y/E176V/E187L/E204Q/E69T/G107R/I218V/I90N/K202T/L105A/N104I/N87E/Q89R/Q94S/R106L/R155S/R180L/R86G/S101N/S121W/S35A/S48A/V127L/V306I/V36M/Y140S/Y91M) (assay: not given). Conditions: not given.
Type: binding

Compared with XLXXXXXXX [3064.0030], XMXXXXXXX [3064.0031] is higher in “Normalized average relative binding affinity (ARB), HLA B*5802” value: 0.13 for the first, 0.17 for the second.

Going from XNXXXXXXX [3064.0032] to XPXXXXXXX [3064.0033], the “Normalized average relative binding affinity (ARB), HLA B*5802” value falls from 0.20 to 0.051.

These sequences were tested against HLA B*5101 (Homo sapiens, UniProt P01889, A329T/A93T/A95T/C349S/D138N/D201E/D98Y/E187L/E204Q/E69T/G107R/I218V/K202T/L105A/L119W/N104I/Q94N/R106L/R155S/R180L/S101N/S121T/S35A/S48A/V306I/V36M/Y195H/Y91F) (assay: not given). Conditions: not given.
Type: binding

Compared with XLXXXXXXX [3064.0030], XMXXXXXXX [3064.0031] is higher in “Normalized average relative binding affinity (ARB), HLA B*5101” value: 0.022 for the first, 0.039 for the second.

Compared with XNXXXXXXX [3064.0032], XPXXXXXXX [3064.0033] is higher in “Normalized average relative binding affinity (ARB), HLA B*5101” value: 0.022 for the first, 1.0 for the second.

Each sequence was assayed against HLA B*1501 (Homo sapiens, UniProt P01889, A329T/A93T/A95T/C349S/D201E/D98Y/E187L/E204Q/E69M/E70A/K202T/N87E/Q94N/R155S/R180W/S121R/S35A/S48A/V306I/V36M/Y140S/Y91S) (assay: biochemical). Conditions: not given.
Type: binding

Going from XLXXXXXXX [3064.0030] to XMXXXXXXX [3064.0031], the “Normalized average relative binding affinity (ARB), HLA B*1501” value rises from 0.52 to 0.96.

Going from XNXXXXXXX [3064.0032] to XPXXXXXXX [3064.0033], the “Normalized average relative binding affinity (ARB), HLA B*1501” value falls from 0.052 to 0.015.
